Key:
SOD1-G93A mice [1] = test: Survival of SOD1 G93A mice (Kaplan-Meier); type: in vivo, mouse; details: for Survival time (surviving mice per group): SOD1 mice
Source text: Mice hemizygous for SOD1-G93A (also called G93A-SOD1) transgene are viable and fertile, with transgenic expression of a G93A mutant form of human SOD1. This founder line (often referred to as G1H) is reported to have a high transgene copy number. […] Motor neuron degeneration has been associated with function and/or degeneration of astrocytes, the major glial cell type of the nervous system. Transgenic mice have an abbreviated life span: 50% survive at 157.1+/−9.3 days (in contrast to the mixed B6SJL background where 50% survival is observed at 128.9+/−9.1 days). Female hemizygotes are poor breeders, and rarely produce more than one litter before the onset of disease. […] The pattern of gene expression in SOD1G93A activated microglia represents a unique ALS-specific signature. These SOD1-G93A (also called G93A-SOD1) transgenic mice us thus useful in studying neuromuscular disorders, including Amyotrophic Lateral Sclerosis.
The SOD1-G93A transgene was designed with a mutant human SOD1 gene (harboring a single amino acid substitution of glycine to alanine at codon 93) driven by its endogenous human SOD1 promoter. This transgene was injected into fertilized B6SJLF1 mouse eggs and founder animals were obtained. Transgenic mice on a mixed B6SJL genetic background were sent to The Jackson Laboratory (as Stock No. 002726). Upon arrival, some mice were backcrossed to C57BL/6J for at least 10 generations to generate this congenic strain (Stock No. 004435). The backcross was completed in July 2002.
(§1) EH301 [Nicotinamide riboside (NR) and pterostilbene (PT)] was administered orally: 185 mg of nicotinamide riboside and 30 mg of pterostilbene/Kg×day (Estrela J M, De La Rubia J E, Dellinger R W. Treating and preventing motor neuron disease using nicotinamide riboside. PCT/US 18/32932, 2018).
(§2) Dexamethasone (DXM) was administered i.p. following sequential 4 weeks-cycle along the experimental time: 1 mg/Kg×day (1st week), 0.5 mg/Kg×day (2nd week), 0.25 mg/Kg×day (3rd week), 0.0 mg/Kg×day ([…]). The dose of 1 mg/Kg was selected based on Kurkowska-Jastrzebska I, Litwin T, Joniec I, Ciesielska A, Przybyłkowski A, Członkowski A, Członkowska A. Dexamethasone protects against dopaminergic neurons damage in a mouse model of Parkinson's disease. Int Immunopharmacol. 2004 October; 4(10-11):1307-18. The cyclic dose regime was designed to optimize the therapeutic benefit causing minimal possible side effects.
(§3) Ibudilast (IB) was administered orally: 12 mg/Kg×day (Wang H, Mei Zl, Zhong K L, Hu M, Long Y, Miao M X, Li N, Yan T H, Hong H. Pretreatment with antiasthmatic drug ibudilast ameliorates Aβ 1-42-induced memory impairment and neurotoxicity in mice. Pharmacol Biochem Behav. 2014 September; 124:373-9).
(§4) Daily doses of NR, DXM and IB were administered together dissolved in 75 uL of physiological saline. PT was present in the chow of laboratory animals. The PT dose was adjusted based on the animal weight and the amount of food ingested per day.
(§5) • Data are presented as mean values f SD for the number of different experiments. • Statistical analyses were performed using Student's t-test. • P<0.05 and **P<0.01 comparing all SOD1 groups versus WT (wild type). • ^+P<0.05 and ^++P<0.01 comparing all SOD1 groups treated with EH301, DXM, IB or their combinations versus SOD1 untreated controls. • ^aP<0.05 and ^aaP<0.01 comparing SOD1+EH301+DXM or SOD1+EH301+IB groups versus SOD1+EH301. • ^bP<0.05 and ^bbP<0.01 comparing SOD1+EH301+DXM or SOD1+EH301+IB groups versus SOD1+DXM • ^cP<0.05 and ^ccP<0.01 comparing SOD1+EH301+DXM or SOD1+EH301+IB groups versus SOD1+IB

SOD1-G93A mice [2] = test: Rotarod test in SOD1 mice; type: in vivo, mouse; details: for Rotarod test (maximum period on rotating axle): SOD1 mice, limit 1200 seconds, mean
Description: as §1, §2, §3, §4
Functions of the test include evaluating balance, grip strength and motor coordination of the subjects; especially in testing the effect of experimental drugs. For this test (Rota Rod, Harvard Apparatus, Holliston, MA) each animal was given three trials and the maximum period (seconds) that it could remain on a rotating axle (3.5 cm diameter; speed of rotation: 15 rpm) without falling was measured. Each mouse was given up to three attempts for an arbitrary limit of 1200 seconds and the longest period was recorded. Changes over time in the different groups were monitored weekly.
as §5

SOD1-G93A mice [3] = test: Neurological score (scale of Weydt et al.) in SOD1 mice; type: in vivo, mouse; details: scale 0-5
Description: as §1, §2, §3, §4
This neurological score is based on the scale of Weydt et al. (Weydt, P., Hong, S. Y., Kliot, M., Moller, T., 2003. Assessing disease onset and progression in the SOD1 mouse model of ALS. NeuroReport 14, 1051-1054). […] When the animals reach a score of “4”, the access to food and water will be facilitated by placing food pellets on the cage floor to all transgenic mice. Reaching a score of “5”, the animals will be euthanized for ethical reasons. Onset is defined as the earliest time when the mice show symptoms (score <4). Changes over time in the different groups were monitored weekly.
as §5

FUS-R521C mice = test: Survival of FUS-R521C mice; type: in vivo, mouse
Description: FUS-R521C mice (ALS model; transgene injected into B6SJL oocytes. Maintained on C57BL/6, therefore subsequent generations have a higher percentage of C57BL/6) were selected for methods examining the effects of the addition of acetylcysteine.
Acetylcysteine (NAC) was administered intraperitoneally (IP): 100 mg/kg per day, beginning on week 30, in experiments examining the effect of the addition of NAC.

[4] = after oral administration; cited from earlier work
[5] = SOD1-G93A mice, versus control untreated

## C[C@@H]1C[C@H]2[C@@H]3CCC4=CC(=O)C=C[C@]4(C)[C@@]3(F)[C@@H](O)C[C@]2(C)[C@@]1(O)C(=O)CO [DXM, Dexamethasone]
SOD1-G93A mice [1]; week 10
  Survival time (surviving mice per group): 10
SOD1-G93A mice [1]; week 11
  Survival time (surviving mice per group): 10
SOD1-G93A mice [1]; week 12
  Survival time (surviving mice per group): 9
SOD1-G93A mice [1]; week 13
  Survival time (surviving mice per group): 9
SOD1-G93A mice [1]; week 14
  Survival time (surviving mice per group): 9
SOD1-G93A mice [1]; week 15
  Survival time (surviving mice per group): 9
SOD1-G93A mice [1]; week 16
  Survival time (surviving mice per group): 9
SOD1-G93A mice [1]; week 17
  Survival time (surviving mice per group): 9
SOD1-G93A mice [1]; week 18
  Survival time (surviving mice per group): 9
SOD1-G93A mice [1]; week 19
  Survival time (surviving mice per group): 9
SOD1-G93A mice [1]; week 20
  Survival time (surviving mice per group): 7
SOD1-G93A mice [1]; week 21
  Survival time (surviving mice per group): 4
SOD1-G93A mice [1]; week 22
  Survival time (surviving mice per group): 1
SOD1-G93A mice [1]; week 23
  Survival time (surviving mice per group): 0
SOD1-G93A mice [2]; week 10, 15 rpm
  Rotarod test (maximum period on rotating axle): 1200 s
SOD1-G93A mice [2]; week 11, 15 rpm
  Rotarod test (maximum period on rotating axle): 1200 s
SOD1-G93A mice [2]; week 12, 15 rpm
  Rotarod test (maximum period on rotating axle): 1200 s
SOD1-G93A mice [2]; week 13, 15 rpm
  Rotarod test (maximum period on rotating axle): 1200 s
SOD1-G93A mice [2]; week 14, 15 rpm
  Rotarod test (maximum period on rotating axle): 1200 s
SOD1-G93A mice [2]; week 15, 15 rpm
  Rotarod test (maximum period on rotating axle): 1130 s
SOD1-G93A mice [2]; week 16, 15 rpm
  Rotarod test (maximum period on rotating axle): 1045 s
SOD1-G93A mice [2]; week 17, 15 rpm
  Rotarod test (maximum period on rotating axle): 820 s
SOD1-G93A mice [2]; week 18, 15 rpm
  Rotarod test (maximum period on rotating axle): 336 s
SOD1-G93A mice [2]; week 19, 15 rpm
  Rotarod test (maximum period on rotating axle): 225 s
SOD1-G93A mice [2]; week 20, 15 rpm
  Rotarod test (maximum period on rotating axle): 161 s
SOD1-G93A mice [2]; week 21, 15 rpm
  Rotarod test (maximum period on rotating axle): 52 s
SOD1-G93A mice [2]; week 22, 15 rpm
  Rotarod test (maximum period on rotating axle): 0 s
SOD1-G93A mice [3]; week 10, mean
  Neurological score: 0
SOD1-G93A mice [3]; week 11, mean
  Neurological score: 0
SOD1-G93A mice [3]; week 12, mean
  Neurological score: 0
SOD1-G93A mice [3]; week 13, mean
  Neurological score: 0
SOD1-G93A mice [3]; week 14, mean
  Neurological score: 0.50
SOD1-G93A mice [3]; week 15, mean
  Neurological score: 0.70
SOD1-G93A mice [3]; week 16, mean
  Neurological score: 1
SOD1-G93A mice [3]; week 17, mean
  Neurological score: 1
SOD1-G93A mice [3]; week 18, mean
  Neurological score: 1.60
SOD1-G93A mice [3]; week 19, mean
  Neurological score: 2.50
SOD1-G93A mice [3]; week 20, mean
  Neurological score: 3
SOD1-G93A mice [3]; week 21, mean
  Neurological score: 3.40
SOD1-G93A mice [3]; week 22, mean
  Neurological score: 4

## CC(C)C(=O)c1c(C(C)C)nn2ccccc12 [IBU, 2-methyl-1-(2-(1-methylethyl)pyrazolo(1,5-a)pyridin-3-yl)1-propanone]
SOD1-G93A mice [1]; SOD1-G93A mice treated from day 50
  mean survival: 137 days
SOD1-G93A mice [1]; [5]
  survival (in words): some improvement
SOD1-G93A mice [1]; week 10
  Survival time (surviving mice per group): 10
SOD1-G93A mice [1]; week 11
  Survival time (surviving mice per group): 10
SOD1-G93A mice [1]; week 12
  Survival time (surviving mice per group): 10
SOD1-G93A mice [1]; week 13
  Survival time (surviving mice per group): 10
SOD1-G93A mice [1]; week 14
  Survival time (surviving mice per group): 10
SOD1-G93A mice [1]; week 15
  Survival time (surviving mice per group): 10
SOD1-G93A mice [1]; week 16
  Survival time (surviving mice per group): 10
SOD1-G93A mice [1]; week 17
  Survival time (surviving mice per group): 10
SOD1-G93A mice [1]; week 18
  Survival time (surviving mice per group): 10
SOD1-G93A mice [1]; week 19
  Survival time (surviving mice per group): 8
SOD1-G93A mice [1]; week 20
  Survival time (surviving mice per group): 4
SOD1-G93A mice [1]; week 21
  Survival time (surviving mice per group): 3
SOD1-G93A mice [1]; week 22
  Survival time (surviving mice per group): 1
SOD1-G93A mice [1]; week 23
  Survival time (surviving mice per group): 0
SOD1-G93A mice [2]; [5]
  motor coordination / motor-neuron dependent functions (in words): some improvement
SOD1-G93A mice [2]; week 10, 15 rpm
  Rotarod test (maximum period on rotating axle): 1200 s
SOD1-G93A mice [2]; week 11, 15 rpm
  Rotarod test (maximum period on rotating axle): 1200 s
SOD1-G93A mice [2]; week 12, 15 rpm
  Rotarod test (maximum period on rotating axle): 1200 s
SOD1-G93A mice [2]; week 13, 15 rpm
  Rotarod test (maximum period on rotating axle): 1200 s
SOD1-G93A mice [2]; week 14, 15 rpm
  Rotarod test (maximum period on rotating axle): 1200 s
SOD1-G93A mice [2]; week 15, 15 rpm
  Rotarod test (maximum period on rotating axle): 1200 s
SOD1-G93A mice [2]; week 16, 15 rpm
  Rotarod test (maximum period on rotating axle): 1200 s
SOD1-G93A mice [2]; week 17, 15 rpm
  Rotarod test (maximum period on rotating axle): 926 s
SOD1-G93A mice [2]; week 18, 15 rpm
  Rotarod test (maximum period on rotating axle): 544 s
SOD1-G93A mice [2]; week 19, 15 rpm
  Rotarod test (maximum period on rotating axle): 197 s
SOD1-G93A mice [2]; week 20, 15 rpm
  Rotarod test (maximum period on rotating axle): 102 s
SOD1-G93A mice [2]; week 21, 15 rpm
  Rotarod test (maximum period on rotating axle): 30 s
SOD1-G93A mice [2]; week 22, 15 rpm
  Rotarod test (maximum period on rotating axle): 0 s
SOD1-G93A mice [3]; week 10, mean
  Neurological score: 0
SOD1-G93A mice [3]; week 11, mean
  Neurological score: 0
SOD1-G93A mice [3]; week 12, mean
  Neurological score: 0
SOD1-G93A mice [3]; week 13, mean
  Neurological score: 0
SOD1-G93A mice [3]; week 14, mean
  Neurological score: 0
SOD1-G93A mice [3]; week 15, mean
  Neurological score: 0.30
SOD1-G93A mice [3]; week 16, mean
  Neurological score: 0.75
SOD1-G93A mice [3]; week 17, mean
  Neurological score: 1
SOD1-G93A mice [3]; week 18, mean
  Neurological score: 1.50
SOD1-G93A mice [3]; week 19, mean
  Neurological score: 2.20
SOD1-G93A mice [3]; week 20, mean
  Neurological score: 3
SOD1-G93A mice [3]; week 21, mean
  Neurological score: 3.70
SOD1-G93A mice [3]; week 22, mean
  Neurological score: 4
FUS-R521C mice; FIGS. 3A-3C, end of study 45 weeks
  survival: about 30 weeks

## CC(=O)N[C@@H](CS)C(=O)O [NAC, N-acetylcysteine]
[4]
  half-life: about 6 hours
  time to max. plasma level: 2 to 3 h
FUS-R521C mice; FIG. 3C
  survival: about 32 days

From patent publication US12350283B2, “Methods and compositions for treating motor neuron diseases” (UNIVERSITAT DE VALENCIA-ESTUDI GENERAL, priority 2019, dated 2025)
